This assay can be described thus: n vitro cytoprotection assay: HEp-2 cells, (originally derived from tumors grown in irradiated-cortisonised weanling rats that had been injected with epidermoid carcinoma tissue from a person's larynx, but later found to be indistinguishable from HeLa cells by PCR DNA analysis), were used for the culturing of genotype A, “Long” strain RSV. Flasks were inoculated with RSV and viral stocks were collected once cytopathic effect (CPE) was greater than 90%. Viral stocks in 25% sucrose media were snap frozen using liquid nitrogen to increase viral stability. Viral stock titers were quantified by tissue culture infectious dose 50% (TCID50) using 8,000 cells per well and 3-fold viral dilutions across a 96-well plate, cultured for 4 days.Following extensive parameter testing, the final assay is run as follows: HEp-2 cells are seeded into the inner 60 wells of a 96-well plate at 8,000 cells per well in a volume of 50 using Growth Media (DMEM without phenol red, 1% L-Glut, 1% Penn/Strep, 1% nonessential amino acids, 10% FBS). 2-fold serial dilutions of control and test compounds are added to the wells in duplicate in a total volume of 25 μL. Viral stock is then added to the wells in a volume of 25 μL, bringing the total volume of each well to 100 μL. Each 96-well plate has a control column of 6 wells with cells and virus but no compound (negative control, max CPE), a column with cells but no compound or virus (positive control, minimum CPE), and a column with no cells or virus or compound (background plate/reagent control). The control wells with cells but no virus are given an additional 25 uL of growth media containing an equal quantity of sucrose as those wells receiving the viral stock in order to keep consistent in media and volume conditions. The outer wells of the plate are filled with 125 μL of growth media to act as a thermal and evaporative moat around the test wells. Following a 4-day incubation period, the plates are read using ATPlite (50 uL added per well), which quantifies the amount of ATP (a measure of cell health) present in each well. Assay plates are read using the Envision luminometer.

As to `O=C(N[C@H]1CN(c2ccccc2)c2ccccc2NC1=O)c1ccccc1`, the EC50 (as a rule, the concentration needed to bring the measured effect to its halfway point) is over 5 µM.

In the case of `O=C1Nc2ccccc2N(c2ccccc2)C[C@@H]1Nc1nnc(-c2ncc(C3CC3)cc2N2CCOCC2)o1`, the EC50 was under 2 µM.

The molecule `NNC(=O)c1ncc(C(F)(F)F)cc1Cl` showed an EC50 of under 2 µM.

In the case of `NNC(=O)c1cn(-c2ccccn2)nc1N1CCOCC1`, the EC50 was 3.5 µM.

`NNC(=O)c1nc(-c2cccnc2)sc1N1CCOCC1` had an EC50 of under 2 µM.

Consider `Cc1ccc(C(=O)NN)o1`, for which the EC50 is over 5 µM.

With `O=C(Nc1ccccc1)N[C@H]1CN(c2ccccc2)c2ccccc2NC1=O`, the EC50 was over 5 µM.

Regarding `COCCNc1cc(C(F)(F)F)cnc1-c1nnc(N[C@H]2CN(c3ccccc3)c3ccccc3NC2=O)o1`, the EC50 is over 5 µM.

`O=C1Nc2ccccc2N(c2ccccc2)C[C@@H]1Nc1nnc(-c2cn(C3CCCC3)nc2N2CCOCC2)o1`: the EC50 was under 2 µM.

The molecule `O=C1Nc2ccccc2N(c2ccccc2)C[C@@H]1Nc1nnc(-c2cccnc2N2CCOCC2)o1` yielded an EC50 of 3.5 µM.

`O=C1Nc2ccccc2N(c2ccccc2)C[C@@H]1Nc1nnc(-c2ccc(N3CCOCC3)cc2F)o1`: the EC50 was over 5 µM.

Turning to `O=C(NNC(=S)NC1C(=O)Nc2ccccc2N(c2ccccc2)C1=O)c1ccccc1` (stereo not given), the EC50 was over 5 µM.

In turn, `O=C1Nc2ccccc2N(c2ccccc2)C[C@@H]1Nc1nc2ccccc2o1` had an EC50 of over 5 µM.

`O=C1Nc2ccccc2N(c2ccccc2)C[C@@H]1Nc1nnc(-c2nc(C3CC3)sc2N2CCOCC2)o1`: the EC50 is under 2 µM.

In the case of `O=C1Nc2ccccc2N(c2ccccc2)C[C@@H]1Nc1nnc(-c2ccccc2)o1`, the EC50 is over 5 µM.

Molecule `O=C(NC1C(=O)Nc2ccccc2N(c2ccccc2)C1=O)c1ccccc1` (stereo not given) yielded an EC50 of over 5 µM.

Turning to `O=C(Nc1ccccc1)NC1C(=O)Nc2ccccc2N(c2ccccc2)C1=O` (stereo not given), the EC50 is over 5 µM.

Regarding `O=C1Nc2ccccc2N(c2ccccc2)C[C@@H]1Nc1nnc(-c2ccc(F)cc2)o1`, the concentration giving a half-maximal response (EC50) was over 5 µM.

The molecule `CCOC(=O)c1nc(C(F)(F)F)sc1N1CCOCC1` gave an EC50 of under 2 µM.

`O=C1Nc2ccccc2N(c2cc(F)c(F)c(F)c2)C[C@@H]1Nc1nnc(-c2ncc(C(F)(F)F)cc2N2CCOCC2)o1` yielded an EC50 of over 5 µM.

Values taken from ChEMBL document CHEMBL5727896, “Aryldiazepine derivatives as RSV inhibitors” (2020).
